Values joined by “and” are separate entries in the source; they are usually repeats but may differ in a detail not shown here. Equal values may be shown once.
Columns and labels:
tPA [1] = biological target: T1, tPA (Sus scrofa, UniProt Q8SQ23); test: Brain water content after fluid percussion brain injury (FPI) in piglets; format: in vivo, pigs; conditions: peptide 1 mg/kg i.v. 30 min prior to FPI, no exogenous tPA, normal 78.87±0.75%, vehicle after injury 84.1±0.45%
T1 construct: purchased Genentech, Inc., South San Francisco, Calif
T1 sequence (Q8SQ23 36-562): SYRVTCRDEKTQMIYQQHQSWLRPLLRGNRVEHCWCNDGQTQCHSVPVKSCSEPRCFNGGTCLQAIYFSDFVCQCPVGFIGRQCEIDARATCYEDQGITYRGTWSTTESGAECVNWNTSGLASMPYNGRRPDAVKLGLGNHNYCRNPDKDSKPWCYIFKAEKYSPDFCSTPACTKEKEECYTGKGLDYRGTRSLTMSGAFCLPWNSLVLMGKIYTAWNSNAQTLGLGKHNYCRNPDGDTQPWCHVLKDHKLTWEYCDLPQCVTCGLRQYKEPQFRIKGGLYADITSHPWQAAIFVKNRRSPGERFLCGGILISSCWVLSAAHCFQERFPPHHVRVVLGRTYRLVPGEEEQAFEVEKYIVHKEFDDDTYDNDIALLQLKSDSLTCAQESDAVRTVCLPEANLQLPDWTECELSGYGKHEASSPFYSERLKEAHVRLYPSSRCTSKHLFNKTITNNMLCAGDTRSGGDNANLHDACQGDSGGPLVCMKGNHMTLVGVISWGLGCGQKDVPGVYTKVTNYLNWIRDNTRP
Protocol: (§1) Fluid Percussion Brain Injury (FPI) method. The method was performed as described by Armstead et al., Nat. Neurosci.
(§2) Brain water content Brain water content (BWC) was determined by measuring the wet and dry weights of the brain tissue and by using the formula BWC=wet weight-dry weight/wet weight×100. Data were analyzed by analysis of variants with a Student-Newman-Keuls post-hoc test. A P<0.05 was considered significant.
(§3) Brain water content (BWC) was determined by measuring the wet and dry weights of the brain tissue and by using the formula BWC=wet weight-dry weight/wet weight×100. Data were analyzed by analysis of variants with a Fischer's post-hoc test. A P<0.05 was considered significant.

tPA [2] = test: as above; format: in vivo, pigs; conditions: for Brain water content after FPI in the presence of tPA: tPA 2 mg/kg i.v. with peptide 1 mg/kg i.v.
Protocol: as §1, §2, §3

tPA [3] = biological target: T2, tPA (Homo sapiens, UniProt P00750); format: in vivo; conditions: rats
T2 construct: purchased Genentech, Inc., South San Francisco, Calif
T2 sequence (P00750 36-562): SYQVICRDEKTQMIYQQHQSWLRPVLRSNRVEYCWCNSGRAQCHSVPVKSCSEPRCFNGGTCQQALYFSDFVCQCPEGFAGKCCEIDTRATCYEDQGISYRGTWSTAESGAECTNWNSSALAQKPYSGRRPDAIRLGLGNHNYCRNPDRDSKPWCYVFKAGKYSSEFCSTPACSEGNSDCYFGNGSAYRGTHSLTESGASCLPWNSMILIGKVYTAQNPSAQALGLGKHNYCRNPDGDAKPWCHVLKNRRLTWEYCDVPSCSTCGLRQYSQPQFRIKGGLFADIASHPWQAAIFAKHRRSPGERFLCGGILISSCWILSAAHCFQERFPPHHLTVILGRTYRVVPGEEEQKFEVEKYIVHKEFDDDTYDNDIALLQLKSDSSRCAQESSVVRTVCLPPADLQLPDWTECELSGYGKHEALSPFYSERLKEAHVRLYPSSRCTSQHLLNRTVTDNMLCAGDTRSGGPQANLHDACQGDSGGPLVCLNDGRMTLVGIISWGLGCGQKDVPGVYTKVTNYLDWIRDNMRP
Protocol: MCA occlusion. All studies were conducted in accordance with the NIH Guide for the Care and Use of Laboratory Animals. Sprague-Dawley rats (mean weight 250 g) were fed on regular chow and allowed free access to drinking water. Rats were anesthetized with an i.p. injection of ketamine (75 mg per ml, Apharmo) and xylazine (5 mg per ml, Bayer). Body temperature was maintained at 37±0.5° C. by means of a heating lamp. Focal cerebral ischemia was induced by occluding the left MCA with an intraluminal filament (Ding-Zhou, L. et al. 2002 Eur J. Pharmacol. 457, 137-146). Briefly, the left common and external carotid arteries were isolated through a midline neck incision and ligated with a 4-0 silk suture (Ethicon). An arteriotomy was fashioned in the common carotid artery just proximal to the carotid bifurcation. […] Twenty-four hours later. rats were euthanized with an overdose of Nembutal and the infarct size was measured.
Measuring infarct volume The brain was removed and sectioned coronally into 2-mm segments. […] The sections were photographed and the infarct area measured using the NIH computer image analysis program. […] Differences were analyzed by ANOVA followed by the t-test and the level of significance was corrected using a post-hoc analysis with the Bonferroni test. […]
The effect of the PAI-1 derived peptides on infarct size after transient mechanical obstruction of the MCA in rats treated with tPA was examined. tPA injected intravenously two hours after establishing reperfusion increased the infarct size from 16±4.6 to 48.333±8.7 mm3 (FIG. 2). […] The infarct size measured in the presence of peptide 206 was 20.333±4.8 while in the presence of peptide 218 N its size was only 13.3±3.6 mm3 (P<0.05; FIG. 2).
The effect of the PAI-1 derived peptides on infarct size was determined in rats that underwent MCA and reperfusion and four hours later treated with tPA alone or together with PAI-1 derived peptides. tPA injected intravenously four hours after establishing reperfusion increased the infarct size from 68±7 to 77±9 mm3 (FIG. 7).

tPA [4] = biological target: T3, tPA (Rattus norvegicus, UniProt P19637); test: Infarct volume after embolic stroke in rats; format: in vivo; conditions: peptide 1 mg per kg in saline, absence of tPA
T3 construct: purchased Genentech, Inc., South San Francisco, Calif
T3 sequence (P19637 33-559): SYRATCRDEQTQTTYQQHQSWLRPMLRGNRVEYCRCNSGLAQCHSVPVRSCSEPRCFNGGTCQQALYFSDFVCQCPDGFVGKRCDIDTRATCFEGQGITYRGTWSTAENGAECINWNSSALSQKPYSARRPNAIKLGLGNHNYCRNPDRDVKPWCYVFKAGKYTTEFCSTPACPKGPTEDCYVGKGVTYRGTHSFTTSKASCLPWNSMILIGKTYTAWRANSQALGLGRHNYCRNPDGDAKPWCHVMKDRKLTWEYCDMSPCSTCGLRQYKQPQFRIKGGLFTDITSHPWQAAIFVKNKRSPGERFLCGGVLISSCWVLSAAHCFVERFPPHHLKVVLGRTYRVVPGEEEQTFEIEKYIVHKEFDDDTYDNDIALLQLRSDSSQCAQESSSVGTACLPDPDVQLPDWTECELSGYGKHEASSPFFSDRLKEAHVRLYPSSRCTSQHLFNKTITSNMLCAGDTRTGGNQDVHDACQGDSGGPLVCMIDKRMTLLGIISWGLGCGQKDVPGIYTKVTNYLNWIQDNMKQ
Protocol: (§4) Embolic stroke Embolic stroke was induced according to the previously reported microembolism model (Bdeir, K. et al. 2000 Blood 96, 1820-1826) as adapted to stroke (Atochin, D. N. et al. 2004. Stroke 35, 2177-2182). Microemboli were prepared, dissected, and homogenized as described (Bdeir K et al. 2000, supra). The suspension of microemboli used to induce stroke contained 1.4×10^6 microparticles, with an average diameter of 3 μm.
(§5) Experiments were performed in rats as described previously (Ding-Zhou, L. et al. 2002, supra) with some modifications. Briefly, Sprague-Dawley rats (mean weight 250 g) were anesthetized by i.p. injection of ketamine (75 mg per mL) and xylazine (5 mg per mL). The carotid artery was exposed and an arteriotomy was performed. A polyethylene catheter with an inner diameter of […] was used to inject the solution of microemboli (1.4×10^6 particles) directly into the exposed internal carotid artery. The catheter was flushed with 0.25 ml normal saline and carefully withdrawn. After washing the surgical site with saline containing 1 mM hexacapron, the incision was closed.
(§6) After induction of embolic stroke, rats were divided into 4 treatment groups (n=7 each): tPA (6 mg per kg) or tPA (6 mg per kg) with either peptide 206, peptide 218 O, or peptide 218 N (1 mg per kg) in normal saline were injected i.v., 2 hours after the catheter was withdrawn. Control groups received a vehicle consisting of normal saline alone or peptides 206 or 218 (1 mg per kg) in saline. 50% of the dose was given as a bolus injection and the remainder was infused over 60 min. The rats were returned to their cages after recovering from anesthesia. Twenty-four hours after the procedure, the rats were euthanized with an overdose of Nembutal and the infarct size was measured.
(§7) Measuring infarct volume The brain was removed and sectioned coronally into 2-mm segments. Brain slices were immersed in 2% 2,3,5-triphenyltetrazolium chloride (TTC) in saline, incubated for 30 minutes at 37° C. and placed in 4% formalin/PBS overnight. The area of infarction remains unstained, appearing white, making it clearly distinguishable from stained viable tissue. The sections were photographed and the infarct area measured using the NIH computer image analysis program. Infarct volume was defined as the sum of the unstained areas of all sections, multiplied by their thickness and expressed in cubic millimeters. Data are represented as mean±SE. Differences were analyzed by ANOVA followed by the t-test and the level of significance was corrected using a post-hoc analysis with the Bonferroni test. Statistical significance was set at P<0.05.
(§8) The effect of PAI-1 derived peptides on tPA treated rats after embolic stroke induced by injection of microthrombi directly into the MCA was also examined. […]

tPA [5] = test: Infarct volume after embolic stroke in rats; format: in vivo
Protocol: as §4, §5, §6, §7, §8

tPA [6] = biological target: T2, tPA; test: tPA-induced opening of the BBB in mice (Evans blue); format: in vivo; conditions: C57/B16 mice, 10 mg/kg tPA with 10 μM peptide i.v.
Text: The brain content of Evans blue was quantified by absorbance at 620 nm.

tPA [7] = biological target: T2, tPA; test: tPA-related mortality and intracranial hemorrhage after transient mechanical obstruction of the MCA in rats; format: in vivo
Protocol: MCA occlusion. All studies were conducted in accordance with the NIH Guide for the Care and Use of Laboratory Animals. Sprague-Dawley rats (mean weight 250 g) were fed on regular chow and allowed free access to drinking water. Rats were anesthetized with an i.p. injection of ketamine (75 mg per ml, Apharmo) and xylazine (5 mg per ml, Bayer). Body temperature was maintained at 37±0.5° C. by means of a heating lamp. Focal cerebral ischemia was induced by occluding the left MCA with an intraluminal filament (Ding-Zhou, L. et al. 2002 Eur J. Pharmacol. 457, 137-146). Briefly, the left common and external carotid arteries were isolated through a midline neck incision and ligated with a 4-0 silk suture (Ethicon). An arteriotomy was fashioned in the common carotid artery just proximal to the carotid bifurcation. A 4-0 nylon monofilament (Ethicon) was introduced through this incision into the internal carotid artery and advanced distal to the carotid bifurcation to occlude the origin of the MCA; the thread was carefully withdrawn 2 hours later. tPA alone at the indicated concentrations, tPA together with the PAI-1 derived peptides 206 (EEIIMD of SEQ ID NO: 11) or peptide 218 N (Ac-RMAPEEIIMDRPFLFVVR-amide of SEQ ID NO: 1) or peptide 218 O (Ac-RMAPEEIIMDRPFLYVVR-amide of SEQ ID NO: 2) were injected i.v. 2 hours after the thread had been withdrawn. Rats were returned to their cages after recovering from anesthesia. Twenty-four hours later. rats were euthanized with an overdose of Nembutal and the infarct size was measured.

Row | Compound | Brain water content after FPI (tPA [1]) | Brain water content after FPI in the presence of tPA (tPA [2]) | Infarct size, tPA with peptide four hours after reperfusion (FIG. 7) (tPA [3]; MCA and reperfusion, tPA co-injected with peptide four hours later) | Post-stroke infarct size, peptide alone (tPA [4]) | Infarct volume, tPA with peptide (tPA [5]; tPA 6 mg per kg with peptide 1 mg per kg i.v. two hours after embolization) | Prevention of tPA-induced loss of BBB integrity (tPA [6]) | Absolute mortality, tPA co-injected with peptide (FIG. 6A) (tPA [7]; mechanical MCA obstruction, tPA alone 28.6%) | Reduction of the tPA associated increase in mortality (FIG. 6B) (tPA [7]; mechanical MCA obstruction, tPA with peptide) | tPA-induced mortality with peptide, in per cent from Table 1 (tPA [7]; tPA plus peptide, tPA alone ~29%) | Brain water content after FPI, tPA alone (tPA [2]; tPA 2 mg/kg i.v. without peptide) | Infarct size, tPA alone four hours after reperfusion (tPA [3]; MCA and reperfusion, tPA i.v. four hours later, control 68±7) | Infarct size, tPA alone (tPA [3]; mechanical MCA obstruction, tPA i.v. two hours after reperfusion, saline control 16±4.6) | Decrease of infarct volume by tPA alone (tPA [5]; tPA 6 mg per kg i.v. two hours after embolization) | Mortality, tPA alone, in per cent from Table 1 (tPA [7]; 6 out of 21) | Mortality (dead rats/rats in group) (tPA [7]; Table 1, control 1/12) | Mortality rate, tPA alone (FIG. 6) (tPA [7]; mechanical MCA obstruction, tPA i.v. two hours after reperfusion, saline control 7.7%)
1 | CC[C@H](C)[C@H](NC(=O)[C@H](CCC(=O)O)NC(=O)[C@H](CCC(=O)O)NC(=O)[C@@H]1CCCN1C(=O)[C@H](C)NC(=O)[C@H](CCSC)NC(=O)[C@H](CCCNC(=N)N)NC(C)=O)C(=O)N[C@H](C(=O)N[C@@H](CCSC)C(=O)N[C@@H](CC(=O)O)C(=O)N[C@@H](CCCNC(=N)N)C(=O)N1CCC[C@H]1C(=O)N[C@@H](Cc1ccccc1)C(=O)N[C@@H](CC(C)C)C(=O)N[C@@H](Cc1ccccc1)C(=O)N[C@H](C(=O)N[C@H](C(=O)N[C@@H](CCCNC(=N)N)C(N)=O)C(C)C)C(C)C)[C@@H](C)CC [peptide 218 N, Ac-RMAPEEIIMDRPFLFVVR-amide] | 79.343±0.25% | 79.643±0.51% | significantly stronger than that of 218 O and 206 | significantly reduced post-stroke infarct size | smaller infarct volumes than those treated with tPA and peptide 206 or tPA and peptide 218 O | about 90% | 15.4% | 63% | 9% | – | – | – | – | – | – | –
2 | EEIIMD [peptide 206, 6-mer peptide corresponding to amino acid residues 373-378 of human PAI-1] | 81.379±0.3% | 82.351±0.55% | – | little effect on infarct size | – | no effect | – | – | – | – | – | – | – | – | – | –
3 | tPA: Recombinant tPA purchased from Genentech; thrombolytic agent, tissue-type plasminogen activator | – | – | – | – | – | – | – | – | – | 87.12±0.6% | 77±9 mm3 | 48.333±8.7 mm3 | approximately 48% | ~29% | 6 out of 21 and 6/21 | 28.6%

Reference: patent publication US8507436B2, “Peptides derived from plasminogen activator inhibitor-1 and uses thereof” (D-Pharm Ltd., priority 2007, dated 2013)
